According to patent publication US6451800B1, “Phenylpiperazine derivatives as integrin αvβ3 antagonists” (Meiji Seika Kaisha, Ltd., priority 1998, dated 2002):

Experiments:
[1] = target: GP IIb/IIIa (Homo sapiens, UniProt P05106+P08514); assay: GP IIb/IIIa antagonistic activity (method of Pharmacological Test 2 in WO 94/21599); format: binding
Method: (§1) GP IIb/IIIa Antagonistic Activity and Human Platelet Aggregation Inhibitory Activity
GP IIb/IIIa antagonistic activity was measured for the compounds according to the present invention. The measurement of the GP IIb/IIIa antagonistic activity was carried out according to the method described in Pharmacological Test 2 in WO 94/21599.

[2] = target: T1, integrin αvβ3 (vitronectin receptor purified from the human placenta) (Homo sapiens, UniProt P05106+P06756); assay: αvβ3 binding assay (vitronectin-vitronectin receptor binding assay); details: for IC50: vitronectin receptor from human placenta, read-out: IC50, inhibition of binding between vitronectin and vitronectin receptor (αvβ3 binding inhibitory activity)
T1 construct: a vitronectin receptor (protein content: 118 μg/ml) purified from the human placenta; from tissue; host or cells: human placenta
T1 sequence (P06756 31-889 limits assumed): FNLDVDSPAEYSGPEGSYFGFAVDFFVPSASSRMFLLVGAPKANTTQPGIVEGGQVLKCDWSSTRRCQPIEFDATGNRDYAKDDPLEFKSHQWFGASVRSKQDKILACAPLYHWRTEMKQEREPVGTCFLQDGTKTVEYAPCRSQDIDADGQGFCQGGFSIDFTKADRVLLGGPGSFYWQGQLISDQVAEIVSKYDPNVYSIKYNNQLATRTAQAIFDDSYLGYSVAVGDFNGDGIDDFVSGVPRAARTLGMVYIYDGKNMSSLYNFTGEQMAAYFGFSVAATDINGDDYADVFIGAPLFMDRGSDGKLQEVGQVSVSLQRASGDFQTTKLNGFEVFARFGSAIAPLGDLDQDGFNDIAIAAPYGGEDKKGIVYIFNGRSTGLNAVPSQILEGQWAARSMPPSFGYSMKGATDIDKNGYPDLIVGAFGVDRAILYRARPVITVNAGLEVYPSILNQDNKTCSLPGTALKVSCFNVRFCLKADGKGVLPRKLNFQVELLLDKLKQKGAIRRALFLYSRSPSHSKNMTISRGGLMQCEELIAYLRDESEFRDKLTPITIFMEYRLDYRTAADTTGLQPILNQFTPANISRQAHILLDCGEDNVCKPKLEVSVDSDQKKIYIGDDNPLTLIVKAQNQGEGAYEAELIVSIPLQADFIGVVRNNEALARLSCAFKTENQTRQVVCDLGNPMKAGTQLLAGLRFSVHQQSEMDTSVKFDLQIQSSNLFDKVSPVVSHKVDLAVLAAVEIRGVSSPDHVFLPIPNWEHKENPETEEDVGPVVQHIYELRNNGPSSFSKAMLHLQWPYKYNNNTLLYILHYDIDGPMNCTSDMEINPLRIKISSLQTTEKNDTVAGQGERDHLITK
T1 sequence (P06756 891-1048 partner limits assumed): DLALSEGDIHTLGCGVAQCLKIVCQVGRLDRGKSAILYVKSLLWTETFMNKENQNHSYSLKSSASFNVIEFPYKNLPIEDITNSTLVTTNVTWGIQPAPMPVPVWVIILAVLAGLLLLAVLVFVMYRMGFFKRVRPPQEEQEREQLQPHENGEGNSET
T1 sequence (P05106 27-788): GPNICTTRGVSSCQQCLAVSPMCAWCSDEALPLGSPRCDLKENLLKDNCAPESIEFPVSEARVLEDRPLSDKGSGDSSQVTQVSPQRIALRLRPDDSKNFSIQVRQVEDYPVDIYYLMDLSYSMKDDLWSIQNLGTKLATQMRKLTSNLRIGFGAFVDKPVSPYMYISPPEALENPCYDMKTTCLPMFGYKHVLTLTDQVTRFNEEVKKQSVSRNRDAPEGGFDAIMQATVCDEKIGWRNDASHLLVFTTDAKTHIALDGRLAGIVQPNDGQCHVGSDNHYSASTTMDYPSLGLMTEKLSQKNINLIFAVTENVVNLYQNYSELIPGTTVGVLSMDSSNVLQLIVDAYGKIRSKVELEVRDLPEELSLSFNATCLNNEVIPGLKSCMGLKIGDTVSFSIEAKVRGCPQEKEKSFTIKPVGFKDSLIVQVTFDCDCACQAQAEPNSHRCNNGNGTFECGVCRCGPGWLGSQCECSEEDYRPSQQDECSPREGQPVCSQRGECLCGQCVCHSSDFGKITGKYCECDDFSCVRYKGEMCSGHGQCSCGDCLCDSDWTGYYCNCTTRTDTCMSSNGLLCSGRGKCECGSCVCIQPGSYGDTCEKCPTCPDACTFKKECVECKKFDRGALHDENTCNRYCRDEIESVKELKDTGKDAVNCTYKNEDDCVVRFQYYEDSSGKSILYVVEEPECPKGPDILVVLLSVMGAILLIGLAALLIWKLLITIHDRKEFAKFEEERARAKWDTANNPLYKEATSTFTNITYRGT
Method: Integrin αvβ3 antagonistic activity was measured for the compounds according to the present invention in a vitronectin-vitronectin receptor binding assay system in accordance with the method of Kouns et al. (W. C. Kouns, D. Kirchhofer, P. Hadvary, A. Edenhofer, T. Weller, G. Pfenninger, H. R. Baumgartner, L. K. Jennings and B. Steiner, Blood, 8, 2539-2547 (1992)).
Specifically, a vitronectin receptor (protein content: 118 μg/ml) purified from the human placenta in accordance with the method of Pytela et al. (R. Pytela, M. D. Pierschbacher, S. Argraves, S. Suzuki, and E. Ruoslahti, Method in Enzymology, 144, 475-489 (1987)) was diluted 50 times with TBS (20 mM Tris-HCl, 150 mM NaCl, 1 mM CaCl2, 1 mM MgCl2, pH 7.4), and distributed and coated on wells (50 μl/well) of a plate (Maxisorp, Nunc, 96 well Immuno Plate). The plate was then allowed to stand at 4° C. for 1 day, washed twice with TBS (200 μl/well), and then subjected to blocking with TBS (150 μl/well) containing 1% bovine serum albumin (SIGMA) at 4° C. overnight. After washing twice with TBS (200 μl/well), 50 μl of vitronectin (CALBIOCHEM) adjusted to 0.2 μg/ml by the addition of TBS (TBS-Tween) containing 0.01% Tween-20 was mixed with 50 μl of each test compound adjusted to each concentration in wells, and a reaction was allowed to proceed at room temperature for 4 hr. After the completion of the reaction, the wells were washed five times with TBS-Tween. A solution prepared by diluting anti-vitronectin rabbit antiserum (CHEMICON) 500 times with TBS-Tween was added as a primary antibody in an amount of 50 μl per well, and a reaction was allowed to proceed at room temperature for 1.5 hr. After washing five times with 200 μl/well of TBS-Tween, a peroxidase (POD)-labeled anti-rabbit IgG antibody solution (CAPPEL) diluted 500 times with TBS-Tween was added as a secondary antibody in an amount of 50 μl/well, and a reaction was allowed to proceed at room temperature for 1.5 hr. After washing five times with TBS-Tween (200 μl /well), ABTS (2,2′-azino-bis(3-ethylbenzthiazoline-6-sulfonic acid), SIGMA) was adjusted to 1 mg/ml by the addition of a ten-fold diluted POD-buffer (ZYMED), and added in an amount of 50 μl/well, and a reaction was allowed to proceed for 5 to 10 min. A 0.1 M citric acid buffer (pH 4.3) containing 0.05% NaN3 was added in an amount of 50 μl/well to stop the reaction, followed by the measurement of the absorbance at 415 nm with a microplate reader (MTP 32, Corona Electric) (reference: 675 nm). The total binding was defined as the absorbance after a reaction using 50 μl of TBS-Tween instead of the test compound, and the non-specific binding (100% inhibition) was defined as the absorbance after a reaction using 50 μl of TBS-Tween containing 2×10^−3 M RGDS. The inhibition was calculated by the following equation: [formula]
(§2) IC50 was determined from a primary regression line of the logarithm of each concentration of the test compound and the logarithm of (100−inhibition)/inhibition.

[3] = Oral absorption in rats; format: in vivo; details: data not shown
Source text: Therefore, any of the compounds, wherein R^9 represents an alkyl group or a hydrogen atom, can be used in the treatment of the above diseases.

[4] = system: human platelet aggregation; assay: Human platelet aggregation inhibitory activity (method of Pharmacological Test 1 in WO 94/21599); format: cell-based; details: for IC50: read-out: IC50, human platelet aggregation inhibition
Method: as §1
Human platelet aggregation inhibitory activity was measured for the compounds according to the present invention. The measurement of the human platelet aggregation activity was carried out according to the method described in Pharmacological Test 1 in WO 94/21599.

[5] = target: T2, integrin α5β1 (fibronectin receptor purified from the human placenta) (Homo sapiens, UniProt P05556+P08648); assay: α5β1 binding assay (fibronectin-fibronectin receptor binding assay); details: read-out: IC50, integrin α5β1 antagonistic activity (fibronectin-fibronectin receptor binding)
T2 construct: a fibronectin receptor (protein content: 52.1 μg/ml) purified from the human placenta; from tissue; host or cells: human placenta
T2 sequence (P08648 42-894 limits assumed): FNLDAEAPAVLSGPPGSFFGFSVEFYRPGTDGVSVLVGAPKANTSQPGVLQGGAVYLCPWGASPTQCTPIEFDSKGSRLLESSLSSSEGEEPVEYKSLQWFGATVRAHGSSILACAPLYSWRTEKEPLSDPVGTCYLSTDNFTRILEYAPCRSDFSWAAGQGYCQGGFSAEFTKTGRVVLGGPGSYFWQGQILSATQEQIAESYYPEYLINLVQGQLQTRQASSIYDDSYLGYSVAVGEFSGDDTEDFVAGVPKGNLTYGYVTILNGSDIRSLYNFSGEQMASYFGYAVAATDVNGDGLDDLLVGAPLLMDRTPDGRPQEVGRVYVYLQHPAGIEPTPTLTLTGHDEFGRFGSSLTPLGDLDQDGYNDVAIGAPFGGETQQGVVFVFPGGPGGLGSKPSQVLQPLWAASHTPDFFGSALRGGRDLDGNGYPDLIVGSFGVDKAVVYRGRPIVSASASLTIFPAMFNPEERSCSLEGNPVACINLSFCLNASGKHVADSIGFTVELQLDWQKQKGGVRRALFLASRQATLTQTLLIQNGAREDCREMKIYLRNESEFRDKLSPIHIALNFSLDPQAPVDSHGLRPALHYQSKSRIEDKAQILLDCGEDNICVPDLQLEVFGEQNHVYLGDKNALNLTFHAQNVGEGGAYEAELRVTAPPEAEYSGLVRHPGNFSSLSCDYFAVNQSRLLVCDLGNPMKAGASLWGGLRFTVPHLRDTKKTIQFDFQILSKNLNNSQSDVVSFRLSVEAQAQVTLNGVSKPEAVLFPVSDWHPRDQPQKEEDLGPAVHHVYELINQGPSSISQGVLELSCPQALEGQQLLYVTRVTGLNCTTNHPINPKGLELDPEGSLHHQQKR
T2 sequence (P08648 895-1049 partner limits assumed): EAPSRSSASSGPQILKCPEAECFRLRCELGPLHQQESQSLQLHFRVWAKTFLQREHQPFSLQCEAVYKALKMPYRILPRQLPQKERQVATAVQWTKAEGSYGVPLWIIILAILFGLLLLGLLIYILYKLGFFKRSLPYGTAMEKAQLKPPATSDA
T2 sequence (P05556 21-798): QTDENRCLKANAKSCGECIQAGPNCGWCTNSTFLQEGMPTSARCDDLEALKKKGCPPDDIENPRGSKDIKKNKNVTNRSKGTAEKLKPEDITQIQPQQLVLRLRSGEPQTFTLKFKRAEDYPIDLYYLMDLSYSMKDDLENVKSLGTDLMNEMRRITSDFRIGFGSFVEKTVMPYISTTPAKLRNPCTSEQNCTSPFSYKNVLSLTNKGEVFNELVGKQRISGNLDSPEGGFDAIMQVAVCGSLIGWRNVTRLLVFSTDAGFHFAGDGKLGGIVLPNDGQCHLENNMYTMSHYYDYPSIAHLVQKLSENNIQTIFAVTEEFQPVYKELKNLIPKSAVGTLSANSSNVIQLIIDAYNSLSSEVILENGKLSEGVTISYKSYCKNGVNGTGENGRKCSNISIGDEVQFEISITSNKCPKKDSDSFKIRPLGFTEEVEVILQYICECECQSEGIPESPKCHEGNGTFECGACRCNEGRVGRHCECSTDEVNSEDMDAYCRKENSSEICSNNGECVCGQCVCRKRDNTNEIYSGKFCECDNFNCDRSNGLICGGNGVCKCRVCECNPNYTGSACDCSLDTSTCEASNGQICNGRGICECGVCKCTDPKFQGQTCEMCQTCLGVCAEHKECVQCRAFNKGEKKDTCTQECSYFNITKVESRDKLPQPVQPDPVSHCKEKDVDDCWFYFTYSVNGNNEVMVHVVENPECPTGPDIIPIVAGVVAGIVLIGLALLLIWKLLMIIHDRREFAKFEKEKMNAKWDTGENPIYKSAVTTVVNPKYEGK
Method: The plate was then allowed to stand at 4° C. for one day, washed twice with TBS (200 μl/well), and then subjected to blocking with TBS (150 μl/well) containing 3% skim milk (DIFCO) at 4° C. overnight. […] After the completion of the reaction, the wells were washed five times with TBS-Tween. A solution prepared by diluting a peroxidase-labeled fibronectin antibody (CAPPEL) 500 times with TBS-Tween was added in an amount of 50 μl per well, and a reaction was allowed to proceed at room temperature for 1.5 hr. After washing five times with TBS-Tween (200 μl/well), ABTS (SIGMA) adjusted to 1 mg/ml by the addition of a ten-fold diluted POD-buffer (ZYMED) was added in an amount of 50 μl/well, and a reaction was allowed to proceed for 5 to 10 min. A 0.1 M citric acid buffer (pH 4.3) containing 0.05% NaN3 was added in an amount of 50 μl/well to stop the reaction, followed by the measurement of the absorbance at 415 nm with a microplate reader (MTP 32, Corona Electric) (reference: 675 nm). […] The inhibition was calculated by the following equation: [formula]
as §2

GP IIb/IIIa, sequence (P08514 32-887 limits assumed): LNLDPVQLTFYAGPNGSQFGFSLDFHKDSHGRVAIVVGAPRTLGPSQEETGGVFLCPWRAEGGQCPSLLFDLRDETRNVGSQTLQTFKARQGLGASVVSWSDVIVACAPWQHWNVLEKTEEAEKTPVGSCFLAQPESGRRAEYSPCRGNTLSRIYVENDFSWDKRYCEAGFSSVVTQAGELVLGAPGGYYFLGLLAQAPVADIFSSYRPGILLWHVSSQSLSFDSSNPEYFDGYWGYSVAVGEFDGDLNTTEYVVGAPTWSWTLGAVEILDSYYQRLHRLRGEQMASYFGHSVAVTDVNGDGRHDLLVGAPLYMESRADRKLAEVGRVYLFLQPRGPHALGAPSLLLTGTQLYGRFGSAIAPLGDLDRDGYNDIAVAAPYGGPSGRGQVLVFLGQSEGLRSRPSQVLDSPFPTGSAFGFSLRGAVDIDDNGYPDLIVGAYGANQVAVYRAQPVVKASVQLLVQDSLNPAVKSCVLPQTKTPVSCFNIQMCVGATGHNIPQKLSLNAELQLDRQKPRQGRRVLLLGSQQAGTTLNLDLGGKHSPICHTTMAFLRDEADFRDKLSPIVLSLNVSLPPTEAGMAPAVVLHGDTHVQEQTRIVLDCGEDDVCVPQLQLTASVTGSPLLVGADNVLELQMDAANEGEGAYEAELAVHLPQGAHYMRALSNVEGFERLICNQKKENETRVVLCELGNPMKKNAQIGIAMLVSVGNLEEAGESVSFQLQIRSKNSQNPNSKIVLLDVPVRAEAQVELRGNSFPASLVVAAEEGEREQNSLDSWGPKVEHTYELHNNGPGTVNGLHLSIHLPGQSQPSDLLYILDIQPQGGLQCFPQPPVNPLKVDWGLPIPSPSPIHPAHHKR
GP IIb/IIIa, sequence (P08514 891-1039 partner limits assumed): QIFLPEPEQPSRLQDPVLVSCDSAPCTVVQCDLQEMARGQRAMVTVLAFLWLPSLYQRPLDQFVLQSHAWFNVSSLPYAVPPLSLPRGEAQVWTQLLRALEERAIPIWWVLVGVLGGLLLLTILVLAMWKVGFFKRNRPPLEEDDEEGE
GP IIb/IIIa, sequence (P05106 27-788): as the sequence (P05106 27-788) above

C[C@H]1CN(c2ccc(C(=O)NC[C@H](NS(=O)(=O)c3ccccc3)C(=O)O)cc2F)CCN1C1=NCCCN1 [Example 72, (2S)-Benzenesulfonylamino-3-[3-fluoro-4-{(3S)-methyl-4-(1,4,5,6-tetrahydropyrimidin-2-yl)-piperazin-1-yl}-benzoylamino]-propionic Acid]
GP IIb/IIIa antagonistic activity (in words) [1]: extremely high GP IIb/IIIa antagonistic activity | IC50 [1]: ≤ 0.0002 µM | integrin αvβ3 antagonistic activity (in words) [2]: high integrin αvβ3 antagonistic activity

O=C(NC[C@H](NS(=O)(=O)c1ccccc1)C(=O)O)c1ccc(N2CCCN(c3ncccn3)CC2)cc1 [Example 5, (2S)-Benzenesulfonylamino-3-[4-{4-(pyrimidin-2-yl) -[1,4]diazepan-1-yl}-benzoylamino]-propionic acid]
oral absorption [3]: excellent oral absorption

O=C(NC[C@H](NS(=O)(=O)c1ccccc1)C(=O)O)c1ccc(N2CCCN(C3=NCCCN3)CC2)cc1 [Example 6, (2S)-Benzenesulfonylamino-3-[4-{4-(1,4,5,6-tetrahydropyrimidin-2-yl)-[1,4]diazepan-1-yl}-benzoylamino]-propionic acid]
human platelet aggregation inhibition (in words) [4]: very strongly inhibited human platelet aggregation | IC50 [4]: 0.05 µM

O=C(NC[C@H](NS(=O)(=O)c1ccccc1)C(=O)O)c1ccc(N2CCN(C3=NCCCN3)CC2)cc1F [Example 56, (2S)-Benzenesulfonylamino-3-[2-fluoro-4-{4-(1,4,5,6-tetrahydropyrimidin-2-yl)-piperazin-1-yl}-benzoylamino]-propionic Acid]
IC50 [1]: ≤ 0.0002 µM

C[C@@H]1CN(c2ccc(C(=O)NC[C@H](NS(=O)(=O)c3ccccc3)C(=O)O)cc2)CCN1C1=NCCCN1 [Example 12, (2S)-Benzenesulfonylamino-3-[4-{(3R)-methyl-4-(1,4,5,6-tetrahydropyrimidin-2-yl)-piperazin-1-yl}-benzoylamino]-propionic acid]
human platelet aggregation inhibition (in words) [4]: very strongly inhibited human platelet aggregation

CC1CN(c2ccc(C(=O)NC[C@H](NS(=O)(=O)c3ccccc3)C(=O)O)cc2)CCN1C1=NCCCN1 (stereo partly drawn) [Example 9, (2S)-Benzenesulfonylamino-3-[4-{3-methyl-4-(1,4,5,6-tetrahydropyrimidin-2-yl)-piperazin-1-yl}-benzoylamino]-propionic acid]
human platelet aggregation inhibition (in words) [4]: very strongly inhibited human platelet aggregation | IC50 [4]: 0.05 µM

O=C(NC[C@H](NS(=O)(=O)c1ccccc1)C(=O)O)c1ccc(N2CCN(C3=NCCCN3)CC2)c(Cl)c1 [Example 59, (2S)-Benzenesulfonylamino-3-[3-chloro-4-{4-(1,4,5,6-tetrahydropyrimidin-2-yl)-piperazin-1-yl}-benzoylamino]-propionic Acid]
IC50 [1]: ≤ 0.0002 µM | IC50 [5]: 63 µM | IC50 [2]: 0.0035 µM

Cc1cc(C)c(S(=O)(=O)N[C@@H](CNC(=O)c2ccc(N3CCN(C4=NCCCN4)CC3)c(F)c2)C(=O)O)c(C)c1 [Example 83, 3-[3-Fluoro-4-{4-(1,4,5,6-tetrahydropyrimidin-2-yl)-piperazin-1-yl}-benzoylamino]-(2S)-(2,4,6-trimethyl-benzenesulfonylamino)-propionic Acid]
IC50 [5]: 13 µM | IC50 [2]: 0.0058 µM

Nc1c(N2CCN(C3=NCCCN3)CC2)ccc(C(=O)NC[C@H](NS(=O)(=O)c2ccccc2)C(=O)O)c1Cl [Example 65, 3-[3-Amino-2-chloro-4-{4-(1,4,5,6-tetrahydropyrimidin-2-yl)-piperazin-1-yl}-benzoylamino]-(2S)-benzenesulfonylamino-propionic Acid]
GP IIb/IIIa antagonistic activity (in words) [1]: extremely high GP IIb/IIIa antagonistic activity | integrin αvβ3 antagonistic activity (in words) [2]: high integrin αvβ3 antagonistic activity | IC50 [2]: 0.0063 µM

N=C(N)N1CCN(c2ccc(C(=O)NC[C@H](NS(=O)(=O)c3ccccc3)C(=O)O)cc2)CC1 [Example 34, (2S)-Benzenesulfonylamino-3-[4-{4-(amidino)-piperazin-1-yl}-benzoylamino]-propionic Acid]
human platelet aggregation inhibition (in words) [4]: very strongly inhibited human platelet aggregation | IC50 [4]: 0.038 µM

O=C(NC[C@H](NS(=O)(=O)c1ccccc1)C(=O)O)c1ccc(N2CCN(C3=NCCCN3)CC2)cc1Cl [Example 62, (2S)-Benzenesulfonylamino-3-[2-chloro-4-{4-(1,4,5,6-tetrahydropyrimidin-2-yl)-piperazin-1-yl}-benzoylamino]-propionic Acid]
IC50 [1]: ≤ 0.0002 µM

Cc1cc(C)c(S(=O)(=O)N[C@@H](CNC(=O)c2ccc(N3CCN(c4ncccn4)CC3)c(F)c2)C(=O)O)c(C)c1 [Example 82, 3-[3-Fluoro-4-{4-(pyrimidin-2-yl)-piperazin-1-yl}-benzoylamino]-(2S)-(2,4,6-trimethyl-benzenesulfonylamino)-propionic Acid]
GP IIb/IIIa antagonistic activity (in words) [1]: extremely high GP IIb/IIIa antagonistic activity
